What was measured:
Hepatitis B virus = assay: Antiviral activity against HBV infected in human HepG2.2.15 cells assessed as inhibition of HBsAg level incubated for 6 days by microplate-based chemiluminescence immunoassay; type: functional, organism-based; details: HepG2 2.2.15, 144 h
HepG2 2.2.15 = assay: Cytotoxicity against human HepG2.2.15 cells by Cell-titer Glo luminescent assay; type: functional
[1] = Clearance in CD-1 mouse liver microsomes at 0.3 uM pre-incubated for 10 mins followed by NADPH addition incubated for 60 mins by LC-MS/MS analysis; type: ADME, Microsome; details: time 70 min, read-out: CLH
[2] = Clearance in human liver microsomes at 0.3 uM pre-incubated for 10 mins followed by NADPH addition incubated for 60 mins by LC-MS/MS analysis; type: ADME, Microsome; details: time 70 min, read-out: CLH
[3] = Clearance in CD-1 mouse at 2 mg/kg,iv measured at 0.083 to 24 hrs post administration by LC-MS/MS analysis; type: ADME, organism-based; details: in vivo, time 0.083-24 hrs
[4] = Half life in CD-1 mouse at 10 mg/kg,po measured at 0.083 to 24 hrs post administration by LC-MS/MS analysis; type: ADME, organism-based; details: in vivo, time 0.083-24 hrs
[5] = Cmax in CD-1 mouse at 10 mg/kg,po measured at 0.083 to 24 hrs post administration by LC-MS/MS analysis; type: ADME, organism-based; details: in vivo, time 0.083-24 hrs
[6] = AUCinfinity in CD-1 mouse at 10 mg/kg,po measured at 0.083 to 24 hrs post administration by LC-MS/MS analysis; type: ADME, organism-based; details: in vivo, time 0.083-24 hrs
[7] = Oral bioavailability in CD-1 mouse at 10 mg/kg measured at 0.083 to 24 hrs by LC-MS/MS analysis; type: ADME, organism-based; details: in vivo, time 0.083-24 hrs
[8] = Clearance in Sprague-Dawley rat at 2 mg/kg,iv measured at 0.083 to 24 hrs post administration by LC-MS/MS analysis; type: ADME, organism-based; details: in vivo, time 0.083-24 hrs
[9] = Half life in Sprague-Dawley rat at 10 mg/kg,po measured at 0.083 to 24 hrs post administration by LC-MS/MS analysis; type: ADME, organism-based; details: Sprague-Dawley, in vivo, time 0.083-24 hrs
[10] = Cmax in Sprague-Dawley rat at 10 mg/kg,po measured at 0.083 to 24 hrs post administration by LC-MS/MS analysis; type: ADME, organism-based; details: Sprague-Dawley, in vivo, time 0.083-24 hrs, read-out: Cmax
[11] = AUCinfinity in Sprague-Dawley rat at 10 mg/kg,po measured at 0.083 to 24 hrs post administration by LC-MS/MS analysis; type: ADME, organism-based; details: in vivo, time 0.083-24 hrs
[12] = Oral bioavailability in Sprague-Dawley rat at 10 mg/kg measured at 0.083 to 24 hrs by LC-MS/MS analysis; type: ADME, organism-based; details: in vivo, time 0.083-24 hrs
[13] = Apparent volume of distribution at steady state in CD-1 mouse at 2 mg/kg,iv measured at 0.083 to 24 hrs post administration by LC-MS/MS analysis; type: ADME, organism-based; details: in vivo, time 0.083-24 hrs, read-out: Vdss(app)
[14] = Half life in CD-1 mouse at 2 mg/kg,iv measured at 0.083 to 24 hrs post administration by LC-MS/MS analysis; type: ADME, organism-based; details: in vivo, time 0.083-24 hrs
[15] = Cmax in CD-1 mouse at 2 mg/kg,iv measured at 0.083 to 24 hrs post administration by LC-MS/MS analysis; type: ADME, organism-based; details: in vivo, time 0.083-24 hrs
[16] = AUCinfinity in CD-1 mouse at 2 mg/kg,iv measured at 0.083 to 24 hrs post administration by LC-MS/MS analysis; type: ADME, organism-based; details: in vivo, time 0.083-24 hrs
[17] = Drug accumulation in CD-1 mouse plasma assessed as fold change in drug uptake at 10 mg/kg,po measured at 0.083 to 24 hrs post administration by LC-MS/MS analysis; type: ADME, organism-based; details: in vivo, time 0.083-24 hrs
[18] = Drug accumulation in CD-1 mouse liver assessed as fold change in drug uptake at 10 mg/kg,po measured at 0.083 to 24 hrs post administration by LC-MS/MS analysis; type: ADME, organism-based; details: in vivo, time 0.083-24 hrs
[19] = Apparent volume of distribution at steady state in Sprague-Dawley rat at 2 mg/kg,iv measured at 0.083 to 24 hrs post administration by LC-MS/MS analysis; type: ADME, organism-based; details: in vivo, time 0.083-24 hrs, read-out: Vdss(app)
[20] = Half life in Sprague-Dawley rat at 2 mg/kg,iv measured at 0.083 to 24 hrs post administration by LC-MS/MS analysis; type: ADME, organism-based; details: in vivo, time 0.083-24 hrs
[21] = Cmax in Sprague-Dawley rat at 2 mg/kg,iv measured at 0.083 to 24 hrs post administration by LC-MS/MS analysis; type: ADME, organism-based; details: in vivo, time 0.083-24 hrs
[22] = AUCinfinity in Sprague-Dawley rat at 2 mg/kg,iv measured at 0.083 to 24 hrs post administration by LC-MS/MS analysis; type: ADME, organism-based; details: in vivo, time 0.083-24 hrs
[23] = Drug accumulation in Sprague-Dawley rat plasma assessed as fold change in drug uptake at 10 mg/kg,po measured at 0.083 to 24 hrs post administration by LC-MS/MS analysis; type: ADME, organism-based; details: in vivo, time 0.083-24 hrs
[24] = Drug accumulation in Sprague-Dawley rat liver assessed as fold change in drug uptake at 10 mg/kg,po measured at 0.083 to 24 hrs post administration by LC-MS/MS analysis; type: ADME, organism-based; details: in vivo, time 0.083-24 hrs

SMILES: COCCOc1cc2c(cc1Cl)-c1cc(=O)c(C(=O)O)cn1[C@@H](C(C)C)CO2
- EC50 (Hepatitis B virus): 780 nM
- CC50 (HepG2 2.2.15): > 50000 nM

SMILES: CC(C)[C@@H]1COc2cc(OCCCCO)c(Cl)cc2-c2cc(=O)c(C(=O)O)cn21
- EC50 (Hepatitis B virus): 14 nM
- CC50 (HepG2 2.2.15): > 50000 nM
- microsomal CLint at 0.3 µM [1]: 1 µL/min/mg

SMILES: CC(C)[C@@H]1COc2cc(OCC(F)(F)F)c(Cl)cc2-c2cc(=O)c(C(=O)O)cn21
- EC50 (Hepatitis B virus): 87 nM
- CC50 (HepG2 2.2.15): 36000 nM
- microsomal CLint at 0.3 µM [2]: 4 µL/min/mg

SMILES: COc1cc2c(nc1OC)-c1cc(=O)c(C(=O)O)cn1[C@H](C(C)C)C2
- EC50 (Hepatitis B virus): 7 nM
- CC50 (HepG2 2.2.15): > 50000 nM

SMILES: COc1cc2c(cn1)-c1cc(=O)c(C(=O)O)cn1C(C(C)C)C2 (configuration not stated)
- EC50 (Hepatitis B virus): 960 nM
- CC50 (HepG2 2.2.15): > 50000 nM

SMILES: COCCCOc1cc2c(nc1OC)-c1cc(=O)c(C(=O)O)cn1[C@](C)(C(C)(C)C)C2
- EC50 (Hepatitis B virus): 1 nM
- CC50 (HepG2 2.2.15): 41000 nM
- clearance [3]: 29 mL/min/kg
- half-life [4]: 3.7 h
- Cmax [5]: 653 ng/mL
- AUC(0-inf) [6]: 4360 ng·h/mL
- bioavailability [7]: 92%
- clearance [8]: 40 mL/min/kg
- half-life [9]: 5.2 h
- Cmax [10]: 274 ng/mL
- AUC ([11]; po, 10 mg/kg): 1666 ng·h/mL
- F ([12]; po, 10 mg/kg): 56%
- Vd [13]: 4 L/kg
- half-life [14]: 1.7 h
- Cmax [15]: 834 ng/mL
- AUC(0-inf) [16]: 914 ng·h/mL
- fold change (FC) [17]: 4
- fold change (FC) [18]: 41
- Vd [19]: 3.1 L/kg
- half-life [20]: 2.9 h
- Cmax [21]: 1680 ng/mL
- AUC ([22]; iv, 2 mg/kg): 1199 ng·h/mL
- fold change (FC) [23]: 7.4
- fold change (FC) [24]: 35

SMILES: COc1cccc(Cn2cc(C(C)C)n3cc(C(=O)O)c(=O)cc3c2=O)c1
- EC50 (Hepatitis B virus): 5000 nM

SMILES: COCCCOc1cc2c(nc1OC)-c1cc(=O)c(C(=O)O)cn1[C@](C)(C(C)C)C2
- EC50 (Hepatitis B virus): 8 nM
- CC50 (HepG2 2.2.15): > 50000 nM
- clearance [3]: 55 mL/min/kg
- half-life [4]: 4.5 h
- Cmax [5]: 639 ng/mL
- AUC(0-inf) [6]: 4160 ng·h/mL
- bioavailability [7]: 136%
- clearance [8]: 22 mL/min/kg
- half-life [9]: 4.4 h
- Cmax [10]: 965 ng/mL
- AUC(0-inf) ([11]; Sprague-Dawley): 6480 ng·h/mL
- bioavailability ([12]; Sprague-Dawley): 82%
- Vd [13]: 4 L/kg
- half-life [14]: 1.5 h
- Cmax [15]: 470 ng/mL
- AUC(0-inf) [16]: 615 ng·h/mL
- fold change (FC) [17]: 0.1
- fold change (FC) [18]: 1
- Vd [19]: 2.7 L/kg
- half-life [20]: 4.4 h
- Cmax [21]: 1590 ng/mL
- AUC(0-inf) ([22]; Sprague-Dawley): 1570 ng·h/mL
- fold change (FC) [23]: 2.7
- fold change (FC) [24]: 15

SMILES: COc1cc2c(cc1OC)-c1cc(=O)c(C(=O)O)cn1[C@H](C(C)C)C2
- EC50 (Hepatitis B virus): 7.3 nM
